# PubChem BioAssay AID1418 (Emory University Molecular Libraries Screening Center, 2008)
# Active and inactive are the calls of the source. No rule for the calls is given here.
# Molecular target: Induced myeloid leukemia cell differentiation protein Mcl-1 (Homo sapiens) (UniProt Q07820)
# Test: blockers of Bid binding to Mcl-1 – biochemical, TR-FRET, dose response (AID 1418)
# Settings: Mcl-1/Bid peptide binding, TR-FRET (europium/Dy647), 2 hr
# Induced myeloid leukemia cell differentiation protein Mcl-1 (Homo sapiens), sequence (Q07820 whole entry, looked up): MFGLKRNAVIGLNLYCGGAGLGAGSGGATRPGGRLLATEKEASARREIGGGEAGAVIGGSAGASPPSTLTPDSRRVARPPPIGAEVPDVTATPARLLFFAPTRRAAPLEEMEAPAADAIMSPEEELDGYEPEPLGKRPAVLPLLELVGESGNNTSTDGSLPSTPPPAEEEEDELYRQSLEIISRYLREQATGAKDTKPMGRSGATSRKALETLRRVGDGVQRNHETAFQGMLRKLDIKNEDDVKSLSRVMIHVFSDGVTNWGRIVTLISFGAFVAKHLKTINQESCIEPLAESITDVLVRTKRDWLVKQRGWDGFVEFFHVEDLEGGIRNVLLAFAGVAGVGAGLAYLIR
row,Compound,IC50
1,COc1ccc(C(=O)N(Cc2ccccc2)Cc2cc3cc4c(cc3[nH]c2=O)OCCO4)cc1,> 54 µM (inactive)
2,O=C1NC(=S)N/C1=C/c1ccc(-c2c(Br)cc([N+](=O)[O-])cc2Br)o1,1.59 µM
3,c1ccc2nc3ccccc3nc2c1,> 54 µM (inactive)
4,COc1ccccc1C1C(C#N)=C(N)Oc2c1c(-c1ccccc1)nn2-c1ccccc1 (configuration not stated),> 54 µM (inactive)
5,O=C(Nc1ccc(S(=O)(=O)Nc2ncccn2)cc1)c1ccc2ncsc2c1,0.86 µM
6,O=c1[nH]c(-c2ccccc2Cl)nc2c1sc(=S)n2-c1ccccc1,> 54 µM (inactive)
7,COc1ccc(-c2nnn(CC(=O)N(CCCO)C(C(=O)NC3CCCC3)c3ccncc3)n2)cc1 (configuration not stated),> 54 µM (inactive)
8,O=C(Cc1ccc(F)cc1)Nc1nnc(SCC(=O)NC2CCCC2)s1,> 54 µM (inactive)
9,CN1C(=O)/C(=C/c2ccccc2OCc2cccc(F)c2)NC1=S,> 54 µM (inactive)
10,O=C(Nc1nccs1)c1cccc(N2C(=O)c3cccc4c([N+](=O)[O-])ccc(c34)C2=O)c1,0.53 µM
11,COc1cc(-c2nc(-c3ccc(NC(=O)c4ccc(Br)o4)cc3)no2)cc(OC)c1OC,1.81 µM
12,O=C(Cc1cccs1)N1CCN(S(=O)(=O)c2ccccc2)CC1,> 54 µM (inactive)
13,O=C(O)CCCCCN1C(=O)/C(=C\c2cn(-c3ccccc3)nc2-c2cccs2)SC1=S,9.29 µM
14,CCN(CC)CCNC(=O)/C(=C/c1cn(C)c2ccccc12)NC(=O)c1ccc(OC)c(OC)c1,> 54 µM (inactive)
15,CN(C(=O)c1ccc(C#N)cc1)c1nnc(-c2cnccn2)s1,> 54 µM (inactive)
16,C=CCOC(=O)c1cc(-c2ccc(/C=C3\C(=O)NC(=O)C(C#N)=C3C)o2)ccc1Cl,0.53 µM
17,CCSc1nnc(NC(=O)C(Cc2ccccc2)n2cccc2)s1 (configuration not stated),> 54 µM (inactive)
18,CC(C)CN(CC(C)C)C(=S)NC1CCCCC1,> 54 µM (inactive)
19,N=c1cc(C2(O)CCCCC2)n2c(nc3ccccc32)s1,> 54 µM (inactive)

row,Compound,IC50
1,CC(C)(C)CC(C)(C)NC(=S)NC1CCN(Cc2ccccc2)CC1,> 54 µM (inactive)
2,O=C(O)CCCCCN1C(=O)/C(=C\c2ccc(-c3ccc(Cl)cc3)o2)SC1=S,16.5 µM
3,Nc1c(C(=O)NCCc2ccccc2)c2nc3ccccc3nc2n1CCN1CCOCC1,> 54 µM (inactive)
4,Cc1ccc(OCC(=O)NCc2ccco2)c([N+](=O)[O-])n1,> 54 µM (inactive)
5,COc1ccc(C(=O)N2CCN(Cc3ccccc3C)CC2)cc1OC,> 54 µM (inactive)
6,Cc1ccc(NC(=O)CN2C(=O)/C(=C3\SC(=S)N(C4CCS(=O)(=O)C4)C3=O)c3ccccc32)cc1 (configuration not stated),0.54 µM
7,O=C(Nc1ccc(F)cc1)Nc1ccc(Oc2ncnc3cc(Cl)ccc23)nc1,> 54 µM (inactive)
8,CCOC(=O)c1cccc(NC(=O)CCNS(=O)(=O)c2ccc3c(c2)CCN3C(=O)CC)c1,> 54 µM (inactive)
9,O=S(=O)(c1ccccc1)N1CCN(Cc2ccccc2C(F)(F)F)CC1,> 54 µM (inactive)
10,Cc1cc(=O)[nH]c(SCC(=O)c2ccc3c(c2)NC(=O)CO3)n1,> 54 µM (inactive)
11,CSc1nc(N(C)CCO)c2sc3nc(-c4ccco4)c4c(c3c2n1)CCC4,> 54 µM (inactive)
12,Cc1cc(=O)oc2cc(OCC(=O)N/N=C/c3cc([N+](=O)[O-])ccc3O)ccc12,5.58 µM
13,COc1ccc(NC(=O)Nc2nnc(CC(=O)NCc3ccccc3)s2)cc1,> 54 µM (inactive)
14,CCN1/C(=C\C=C2\C(=O)N(c3ccccc3)C(=S)N2C)Sc2ccccc21,2.97 µM
15,O=c1cc(-c2ccccc2Cl)oc2c(NS(=O)(=O)c3cc(Cl)cc(Cl)c3O)ccc(O)c12,7.73 µM
16,CCCOc1cccc(CN2CCCCC2c2cccnc2)c1 (configuration not stated),> 54 µM (inactive)
17,Cc1ccc(S(=O)(=O)/N=S(\C)C(C)C)cc1 (configuration not stated),> 54 µM (inactive)
18,C=C(C=O)CC1CC(O)[C@]2(C)OC3CC4OC5C[C@]6(C)O[C@]7(C)CCC8OC9C[C@]%10(C)OC%11C(C)=CC(=O)OC%11CC%10OC9C[C@@H](C)C8OC7CC6O[C@]5(C)CC5OC5C4OC3CC2O1 (some centres not stated),> 54 µM (inactive)
